Results from US9353084B2, “2-amino 3,5,5-trifluoro-3,4,5,6-tetrahydropyridines as BACE1 inhibitors for treatment of Alzheimer's disease” (H. Lundbeck A/S, priority 2014, dated 2016).

Target: human BACE1 (Homo sapiens (Human), UniProt P56817)
Experiment: BACE1 binding assay (SPA-based, radioligand displacement)
Conditions: pH 4.5, Ki calculated from IC50
Experimental: The binding assay was performed as SPA-based assay using a biotinylated form of human BACE1 recombinantly expressed and subsequently purified from Freestyle HEK293 cells. The binding assay was run in a 50 mM sodium acetate buffer, pH 4.5 containing 50 mM NaCl and 0.03% Tween-20 in white clear bottom 384 plates (Corning #3653). 10 nM (final concentration) radioligand ([^3H]—N-((1S,2R)-1-benzyl-3-cyclopropylamino-2-hydroxy-propyl)-5-(methanesulfonyl-methyl-amino)-N—((R)-1-phenyl-ethyl)-isophthalamide) (TRQ11569 purchased from GE Healthcare) was mixed with test compound at a given concentration, 6 nM (final concentration) human BACE1 and 25 μg Streptavidin coated PVT core SPA beads (RPNQ0007, GE Healthcare Life Sciences) in a total volume of 40 μl. Several concentrations of each test compound were tested in the assay for IC50 determination. The plates were incubated for one hour at room temperature and counted in a Wallac Trilux counter. Total and non-specific binding were determined using buffer and 1 μM (final concentration) of the high affinity BACE1 reference inhibitor (S)-6-[3-chloro-5-(5-prop-1-ynyl-pyridin-3-yl)-thiophen-2-yl]-2-imino-3,6-dimethyl-tetrahydro-pyrimidin-4-one, respectively. For each test compound, a IC50 value (the concentration mediating 50% inhibition of the specific binding of the radioligand) was determined from concentration-response curve and used to calculate the Ki from the equation Ki=IC50/(1+L/Kd), where L and Kd are the final concentration of the radioligand used in the assay and the dissociation constant of the radioligand, respectively. The Kd of the radioligand was determined from saturation binding experiments.

human BACE1, sequence (P56817 46-501): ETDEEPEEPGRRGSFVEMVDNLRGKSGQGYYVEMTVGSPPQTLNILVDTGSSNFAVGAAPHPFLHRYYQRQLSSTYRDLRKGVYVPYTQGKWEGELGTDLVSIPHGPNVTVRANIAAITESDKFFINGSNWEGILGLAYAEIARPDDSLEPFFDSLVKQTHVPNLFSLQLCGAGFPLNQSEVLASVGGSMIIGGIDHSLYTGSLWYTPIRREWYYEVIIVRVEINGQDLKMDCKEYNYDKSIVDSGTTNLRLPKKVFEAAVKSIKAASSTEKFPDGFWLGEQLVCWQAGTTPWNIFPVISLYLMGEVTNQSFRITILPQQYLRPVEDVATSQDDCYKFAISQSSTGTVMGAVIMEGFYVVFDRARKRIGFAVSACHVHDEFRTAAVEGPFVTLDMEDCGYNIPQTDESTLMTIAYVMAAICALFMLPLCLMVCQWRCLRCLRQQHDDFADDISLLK

Structure (SMILES) | Ki [nM]
C[C@@]1(F)CC(F)(F)[C@@](C)(c2cc(NC(=O)c3ccc(F)cn3)ccc2F)N=C1N [Compound 2, N-(3-((2R,5R)-6-amino-3,3,5-trifluoro-2,5-dimethyl-2,3,4,5-tetrahydropyridin-2-yl)-4-fluorophenyl)-5-fluoropicolinamide] | 210
C[C@]1(F)CC(F)(F)[C@@](C)(c2cc(NC(=O)c3nccs3)ccc2F)N=C1N [Compound 8, N-(3-((2R,5S)-6-amino-3,3,5-trifluoro-2,5-dimethyl-2,3,4,5-tetrahydropyridin-2-yl)-4-fluorophenyl) thiazole-2-carboxamide] | 66
Cn1cc(Br)nc1C(=O)Nc1ccc(F)c([C@@]2(C)N=C(N)[C@@](C)(F)CC2(F)F)c1 [Compound 9, N-(3-((2R,5S)-6-amino-3,3,5-trifluoro-2,5-dimethyl-2,3,4,5-tetrahydropyridin-2-yl)-4-fluorophenyl)-4-bromo-1-methyl-1H-imidazole-2-carboxamide] | 100
C[C@]1(F)CC(F)(F)[C@@](C)(c2cc(NC(=O)c3ccc(C(F)(F)F)cn3)ccc2F)N=C1N [Compound 11, N-(3-((2R,5S)-6-amino-3,3,5-trifluoro-2,5-dimethyl-2,3,4,5-tetrahydropyridin-2-yl)-4-fluorophenyl)-5-(trifluoromethyl)picolinamide] | 63
Cc1nnc(C(=O)Nc2ccc(F)c([C@@]3(C)N=C(N)[C@@](C)(F)CC3(F)F)c2)o1 [Compound 20, N-(3-((2R,5S)-6-amino-3,3,5-trifluoro-2,5-dimethyl-2,3,4,5-tetrahydropyridin-2-yl)-4-fluorophenyl)-5-methyl-1,3,4-oxadiazole-2-carboxamide] | 1600
Cn1cnc(C(=O)Nc2ccc(F)c([C@@]3(C)N=C(N)[C@@](C)(F)CC3(F)F)c2)n1 [Compound 22, N-(3-((2R,5S)-6-amino-3,3,5-trifluoro-2,5-dimethyl-2,3,4,5-tetrahydropyridin-2-yl)-4-fluorophenyl)-1-methyl-1H-1,2,4-triazole-3-carboxamide] | 110
C[C@@]1(F)CC(F)(F)[C@@](C)(c2cc(NC(=O)c3ccn(C(F)F)n3)ccc2F)N=C1N [Compound 23, N-(3-((2R,5R)-6-amino-3,3,5-trifluoro-2,5-dimethyl-2,3,4,5-tetrahydropyridin-2-yl)-4-fluorophenyl)-1-(difluoromethyl)-1H-pyrazole-3-carboxamide] | 71
COc1cnc(C(=O)Nc2ccc(F)c([C@@]3(C)N=C(N)[C@](C)(F)CC3(F)F)c2)cn1 [Compound 25, N-(3-((2R,5R)-6-amino-3,3,5-trifluoro-2,5-dimethyl-2,3,4,5-tetrahydropyridin-2-yl)-4-fluorophenyl)-5-methoxypyrazine-2-carboxamide] | 130
COc1cnc(C(=O)Nc2ccc(F)c([C@@]3(C)N=C(N)[C@](C)(F)CC3(F)F)c2)nc1 [Compound 26, N-(3-((2R,5R)-6-amino-3,3,5-trifluoro-2,5-dimethyl-2,3,4,5-tetrahydropyridin-2-yl)-4-fluorophenyl)-5-methoxypyrimidine-2-carboxamide] | 130
Cc1csc(C(=O)Nc2ccc(F)c([C@@]3(C)N=C(N)[C@](C)(F)CC3(F)F)c2)n1 [Compound 27, N-(3-((2R,5R)-6-amino-3,3,5-trifluoro-2,5-dimethyl-2,3,4,5-tetrahydropyridin-2-yl)-4-fluorophenyl)-4-methylthiazole-2-carboxamide] | 140
C[C@@]1(F)CC(F)(F)[C@@](C)(c2cc(NC(=O)c3ccc(C(F)(F)F)cn3)ccc2F)N=C1N [Compound 28, N-(3-((2R,5R)-6-amino-3,3,5-trifluoro-2,5-dimethyl-2,3,4,5-tetrahydropyridin-2-yl)-4-fluorophenyl)-5-(trifluoromethyl)picolinamide] | 170
C[C@@]1(F)CC(F)(F)[C@@](C)(c2cc(NC(=O)c3nc(CF)co3)ccc2F)N=C1N [Compound 30, N-(3-((2R,5R)-6-amino-3,3,5-trifluoro-2,5-dimethyl-2,3,4,5-tetrahydropyridin-2-yl)-4-fluorophenyl)-4-(fluoromethyl)oxazole-2-carboxamide] | 260
C[C@@]1(F)CC(F)(F)[C@@](C)(c2cc(NC(=O)c3nc(CF)cs3)ccc2F)N=C1N [Compound 31, N-(3-((2R,5R)-6-amino-3,3,5-trifluoro-2,5-dimethyl-2,3,4,5-tetrahydropyridin-2-yl)-4-fluorophenyl)-4-(fluoromethyl)thiazole-2-carboxamide] | 92
Cc1nc(C(=O)Nc2ccc(F)c([C@@]3(C)N=C(N)[C@](C)(F)CC3(F)F)c2)co1 [Compound 34, N-(3-((2R,5R)-6-amino-3,3,5-trifluoro-2,5-dimethyl-2,3,4,5-tetrahydropyridin-2-yl)-4-fluorophenyl)-2-methyloxazole-4-carboxamide] | 210

Continued by falling Ki, values first:

Ki [nM] | Structure (SMILES)
62 | C[C@@]1(F)CC(F)(F)[C@@](C)(c2cc(NC(=O)c3ccc(Cl)cn3)ccc2F)N=C1N [Compound 33, N-(3-((2R,5R)-6-amino-3,3,5-trifluoro-2,5-dimethyl-2,3,4,5-tetrahydropyridin-2-yl)-4-fluorophenyl)-5-chloropicolinamide]
58 | C[C@]1(F)CC(F)(F)[C@@](C)(c2cc(NC(=O)c3cnc(C(F)F)cn3)ccc2F)N=C1N [Compound 16, N-(3-((2R,5S)-6-amino-3,3,5-trifluoro-2,5-dimethyl-2,3,4,5-tetrahydropyridin-2-yl)-4-fluorophenyl)-5-(difluoromethyl)pyrazine-2-carboxamide]
58 | Cc1noc(C(=O)Nc2ccc(F)c([C@@]3(C)N=C(N)[C@@](C)(F)CC3(F)F)c2)n1 [Compound 21, N-(3-((2R,5S)-6-amino-3,3,5-trifluoro-2,5-dimethyl-2,3,4,5-tetrahydropyridin-2-yl)-4-fluorophenyl)-3-methyl-1,2,4-oxadiazole-5-carboxamide]
51 | C[C@@]1(F)CC(F)(F)[C@@](C)(c2cc(NC(=O)c3ccc(C#N)cn3)ccc2F)N=C1N [Compound 32, N-(3-((2R,5R)-6-amino-3,3,5-trifluoro-2,5-dimethyl-2,3,4,5-tetrahydropyridin-2-yl)-4-fluorophenyl)-5-cyanopicolinamide]
46 | C[C@]1(F)CC(F)(F)[C@@](C)(c2cc(NC(=O)c3nc(CF)cs3)ccc2F)N=C1N [Compound 15, N-(3-((2R,5S)-6-amino-3,3,5-trifluoro-2,5-dimethyl-2,3,4,5-tetrahydropyridin-2-yl)-4-fluorophenyl)-4-(fluoromethyl)thiazole-2-carboxamide]
44 | Cc1csc(C(=O)Nc2ccc(F)c([C@@]3(C)N=C(N)[C@@](C)(F)CC3(F)F)c2)n1 [Compound 10, N-(3-((2R,5S)-6-amino-3,3,5-trifluoro-2,5-dimethyl-2,3,4,5-tetrahydropyridin-2-yl)-4-fluorophenyl)-4-methylthiazole-2-carboxamide]
37 | C[C@]1(F)CC(F)(F)[C@@](C)(c2cc(NC(=O)c3nc(CF)co3)ccc2F)N=C1N [Compound 14, N-(3-((2R,5S)-6-amino-3,3,5-trifluoro-2,5-dimethyl-2,3,4,5-tetrahydropyridin-2-yl)-4-fluorophenyl)-4-(fluoromethyl)oxazole-2-carboxamide]
33 | Cc1nc(C(=O)Nc2ccc(F)c([C@@]3(C)N=C(N)[C@@](C)(F)CC3(F)F)c2)co1 [Compound 7, N-(3-((2R,5S)-6-amino-3,3,5-trifluoro-2,5-dimethyl-2,3,4,5-tetrahydropyridin-2-yl)-4-fluorophenyl)-2-methyloxazole-4-carboxamide]
32 | COc1cnc(C(=O)Nc2ccc(F)c([C@@]3(C)N=C(N)[C@@](C)(F)CC3(F)F)c2)c(C)n1 [Compound 19, N-(3-((2R,5S)-6-amino-3,3,5-trifluoro-2,5-dimethyl-2,3,4,5-tetrahydropyridin-2-yl)-4-fluorophenyl)-5-methoxy-3-methylpyrazine-2-carboxamide]
29 | COc1cnc(C(=O)Nc2ccc(F)c([C@@]3(C)N=C(N)[C@@](C)(F)CC3(F)F)c2)nc1 [Compound 12, N-(3-((2R,5S)-6-amino-3,3,5-trifluoro-2,5-dimethyl-2,3,4,5-tetrahydropyridin-2-yl)-4-fluorophenyl)-5-methoxypyrimidine-2-carboxamide]
19 | C[C@]1(F)CC(F)(F)[C@@](C)(c2cc(NC(=O)c3ccn(C(F)F)n3)ccc2F)N=C1N [Compound 6, N-(3-((2R,5S)-6-amino-3,3,5-trifluoro-2,5-dimethyl-2,3,4,5-tetrahydropyridin-2-yl)-4-fluorophenyl)-1-(difluoromethyl)-1H-pyrazole-3-carboxamide]
12 | C[C@]1(F)CC(F)(F)[C@@](C)(c2cc(NC(=O)c3ccc(Cl)cn3)ccc2F)N=C1N [Compound 3, N-(3-((2R,5S)-6-amino-3,3,5-trifluoro-2,5-dimethyl-2,3,4,5-tetrahydropyridin-2-yl)-4-fluorophenyl)-5-chloropicolinamide]
11 | C[C@]1(F)CC(F)(F)[C@@](C)(c2cc(NC(=O)c3ccc(C#N)cn3)ccc2F)N=C1N [Compound 4, N-(3-((2R,5S)-6-amino-3,3,5-trifluoro-2,5-dimethyl-2,3,4,5-tetrahydropyridin-2-yl)-4-fluorophenyl)-5-cyanopicolinamide]
